The structures appear in SMILES notation.

We go through six compounds from ChEMBL document CHEMBL1152058, “Configurational variants of hydroxyphenylkainoid: their potent depolarizing activities in the rat central nervous system” (1992).

The species entered for this assay is Rattus norvegicus. In words: Compound was evaluated for its depolarizing activity in the isolated rat spinal cord and the relative potency was determined. It is filed as functional.

In turn, `O=C(O)C[C@H]1[C@@H](C(=O)O)NC[C@H]1c1ccccc1O` showed a Relative potency of 0.5. `O=C(O)C[C@H]1[C@@H](C(=O)O)NC[C@@H]1c1ccccc1O` yielded a Relative potency of 2. For `O=C(O)C[C@@H]1[C@@H](C(=O)O)NC[C@@H]1c1ccccc1O`, the Relative potency turned out to be 300. The compound `O=C(O)C[C@@H]1[C@@H](C(=O)O)NC[C@H]1c1ccccc1O` came in with a Relative potency of 0.5. `N[C@@H](CCC(=O)O)C(=O)O` [GLUTAMIC ACID] displayed a Relative potency of 1. Regarding `C=C(C)[C@H]1CN[C@H](C(=O)O)[C@H]1CC(=O)O` [KAINIC ACID], the Relative potency is on record as 150.
